Molecular target: T1, human M4 muscarinic acetylcholine receptor (Homo sapiens, UniProt P08173)
T1 construct: expressed in transfected cells; host or cells: CHO-K1
T1 sequence (P08173 1-479): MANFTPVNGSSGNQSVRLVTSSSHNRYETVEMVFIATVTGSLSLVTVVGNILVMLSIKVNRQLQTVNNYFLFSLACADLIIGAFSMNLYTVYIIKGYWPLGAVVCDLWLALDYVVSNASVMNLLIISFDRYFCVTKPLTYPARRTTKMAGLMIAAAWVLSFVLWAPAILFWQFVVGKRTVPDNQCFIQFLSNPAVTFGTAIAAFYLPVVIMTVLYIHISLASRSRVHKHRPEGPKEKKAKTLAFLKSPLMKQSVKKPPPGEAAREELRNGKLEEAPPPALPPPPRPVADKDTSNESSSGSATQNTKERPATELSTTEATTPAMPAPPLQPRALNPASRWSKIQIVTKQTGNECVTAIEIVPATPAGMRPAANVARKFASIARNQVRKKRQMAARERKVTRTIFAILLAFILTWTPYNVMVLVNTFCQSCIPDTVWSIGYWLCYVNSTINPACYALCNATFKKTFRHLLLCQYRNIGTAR
Assay: human FLIPR-based M4 PAM assay (calcium mobilization in CHO-K1 cells with human M4 receptor and Gαqi5)
Assay type: cell-based
Settings: inflection point of dose response curve, acetylcholine at 20% of maximum response, FLIPR Tetra, read-out: M4 PAM IP
Outline: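 CHO-K1 cells stably expressing human M4 and chimeric Gαqi5 were dye-loaded ~1 h at 37° C. Test compound was added with fluorescence recorded 4 min, then acetylcholine at EC20 (sometimes a further EC70 addition) with reading 3.5 min. Value is the inflection point of a 4-parameter logistic fit.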

| SMILES | EC50 [nM] |
| --- | --- |
| CN1Cc2ccc(-c3nc(Cl)ccc3-c3cnn(CC4CCCC4)c3)cc2C1=O [Example 107, 6-(6-Chloro-3-(1-(cyclopentylmethyl)-1H-pyrazol-4-yl)pyridin-2-yl)-2-methylisoindolin-1-one] | 15 |
| O=C1c2cc(-c3nc(Cl)ccc3-c3cnn(CC4CCCC4)c3)ccc2CN1C1CC1 [Example 108, 6-(6-chloro-3-(1-(cyclopentylmethyl)-1H-pyrazol-4-yl)pyridin-2-yl)-2-cyclopropylisoindolin-1-one] | 17 |
| Cc1cc(-c2cnn(CC3(C)CCCC3)c2)c(-c2ccc3c(c2)C(=O)N(C)C3)nc1C [Example 109, 6-(5,6-Dimethyl-3-(1-((1-methylcyclopentyl)methyl)-1H-pyrazol-4-yl)pyridin-2-yl)-2-methylisoindolin-1-one] | 48 |
| CN1Cc2ccc(-c3nc(C#N)ccc3-c3cn(CC4(C)CCCC4)nc3C#N)cc2C1=O [Example 110, 5-(3-Cyano-1-((1-methylcyclopentyl)methyl)-1H-pyrazol-4-yl)-6-(2-methyl-3-oxoisoindolin-5-yl)picolinonitrile] | 86 |
| Cc1cc(-c2cnn(CC3(C)CCCC3)c2)c(-c2ccc3c(c2)C(=O)N(C)C3)nc1C#N [Example 111, 3-Methyl-6-(2-methyl-3-oxoisoindolin-5-yl)-5-(1-((1-methylcyclopentyl)methyl)-1H-pyrazol-4-yl)picolinonitrile] | 35 |
| Cc1cc(-c2cnn(CC3(C)CCCC3)c2)c(-c2cnc3c(c2)C(=O)N(C)C3)nc1C#N [Example 112, 3-methyl-6-(6-methyl-5-oxo-6,7-dihydro-5H-pyrrolo[3,4-b]pyridin-3-yl)-5-(1-((1-methylcyclopentyl)-methyl)-1H-pyrazol-4-yl)picolinonitrile] | 27 |
| Cc1cc(-c2cnn(CC3(C)CCCC3)c2)c(-c2ccc3c(c2)C(=O)NC3)nc1C#N [Example 112A, 3-methyl-5-(1-((1-methylcyclopentyl)methyl)-1H-pyrazol-4-yl)-6-(3-oxoisoindolin-5-yl)picolinonitrile] | 36 |
| Cc1cc(-c2cnn(CC3(C)CCCC3)c2)c(-c2ccc3c(c2)C(=O)N(C)C3)nc1C(N)=O [Example 113, 3-Methyl-6-(2-methyl-3-oxoisoindolin-5-yl)-5-(1-((1-methylcyclopentyl)methyl)-1H-pyrazol-4-yl)picolinamide] | 69 |
| CC1(Cn2cc(-c3ccc(C(N)=O)nc3-c3ccc4c(c3)C(=O)NC4)cn2)CCCC1 [Example 113A, 5-(1-((1-methylcyclopentyl)methyl)-1H-pyrazol-4-yl)-6-(3-oxoisoindolin-5-yl)picolinamide] | 205 |
| Cc1cc(-c2cnn(CC3(C)CCCC3)c2)c(-c2ccc3c(c2)C(=O)N(C)C3)nc1CF [Example 114, 6-(6-(Fluoromethyl)-5-methyl-3-(1-((1-methylcyclopentyl)methyl)-1H-pyrazol-4-yl)pyridin-2-yl)-2-methylisoindolin-1-one] | 57 |
| CN1Cc2ccc(-c3nc(CF)c(F)cc3-c3cnn(CC4(C)CCCC4)c3)cc2C1=O [Example 115, 6-(5-fluoro-6-(fluoromethyl)-3-(1-((1-methylcyclo-pentyl)-methyl)-1H-pyrazol-4-yl)pyridin-2-yl)-2-methylisoindolin-1-one] | 47 |
| COCc1nc(-c2ccc3c(c2)C(=O)N(C)C3)c(-c2cnn(CC3(C)CCCC3)c2)cc1C [Example 116, 6-(6-(Methoxymethyl)-5-methyl-3-(1-((1-methylcyclopentyl)methyl)-1H-pyrazol-4-yl)pyridin-2-yl)-2-methylisoindolin-1-one] | 326 |
| C#CCN1Cc2ncc(-c3nc(CF)ccc3-c3cnn(CC4(C)CCCC4)c3)cc2C1=O [Example 117, 3-(6-(Fluoromethyl)-3-(1-((1-methylcyclopentyl)methyl)-1H-pyrazol-4-yl)pyridin-2-yl)-6-(prop-2-yn-1-yl)-6,7-dihydro-5H-pyrrolo[3,4-b]pyridin-5-one] | 32 |
| C#CCN1Cc2ncc(-c3nc4c(cc3-c3cnn(CC5(C)CCCC5)c3)CCC4)cc2C1=O [Example 118, 3-(3-(1-((1-methylcyclopentyl)methyl)-1H-pyrazol-4-yl)-6,7-dihydro-5H-cyclopenta[b]pyridin-2-yl)-6-(prop-2-yn-1-yl)-6,7-dihydro-5H-pyrrolo[3,4-b]pyridin-5-one] | 79 |
| CC1(Cn2cc(-c3cc4c(nc3-c3cnc5c(c3)C(=O)N(CCF)C5)CCC4)cn2)CCCC1 [Example 118A, 6-(2-fluoroethyl)-3-(3-(1-((1-methylcyclopentyl)methyl)-1H-pyrazol-4-yl)-6,7-dihydro-5H-cyclopenta[b]pyridin-2-yl)-6,7-dihydro-5H-pyrrolo[3,4-b]pyridin-5-one] | 50 |
| CC#CCN1Cc2ncc(-c3nc4c(cc3-c3cnn(CC5(C)CCCC5)c3)CCC4)cc2C1=O [Example 119, 6-(but-2-yn-1-yl)-3-(3-(1-((1-methylcyclopentyl)methyl)-1H-pyrazol-4-yl)-6,7-dihydro-5H-cyclopenta[b]pyridin-2-yl)-6,7-dihydro-5H-pyrrolo[3,4-b]pyridin-5-one] | 71 |
| C#CCN1Cc2ncc(-c3nc(C#N)ccc3-c3cnn(CC4(C)CCCC4)c3)cc2C1=O [Example 120, 5-(1-((1-methylcyclopentyl)methyl)-1H-pyrazol-4-yl)-6-(5-oxo-6-(prop-2-yn-1-yl)-6,7-dihydro-5H-pyrrolo[3,4-b]pyridin-3-yl)picolinonitrile] | 26 |
| C#CCN1Cc2ccc(-c3nc(C#N)ccc3-c3cnn(CC4(C)CCCC4)c3)cc2C1=O [Example 120A] | 17 |
| CC(C)N1Cc2ncc(-c3nc(C#N)ccc3-c3cnn(CC4(C)CCCC4)c3)cc2C1=O [Example 121, 6-(6-isopropyl-5-oxo-6,7-dihydro-5H-pyrrolo[3,4-b]pyridin-3-yl)-5-(1-((1-methylcyclopentyl)methyl)-1H-pyrazol-4-yl)picolinonitrile] | 134 |
| CC#CCN1Cc2ncc(-c3nc(C#N)ccc3-c3cnn(CC4(C)CCCC4)c3)cc2C1=O [Example 122, 6-(6-(but-2-yn-1-yl)-5-oxo-6,7-dihydro-5H-pyrrolo[3,4-b]pyridin-3-yl)-5-(1-((1-methylcyclopentyl)methyl)-1H-pyrazol-4-yl)picolinonitrile] | 41 |
| C#CCN1Cc2ccc(-c3nc4c(cc3-c3cnn(CC5(C)CCCC5)c3)CCC4)cc2C1=O [Example 123, 6-(3-(1-((1-methylcyclopentyl)methyl)-1H-pyrazol-4-yl)-6,7-dihydro-5H-cyclopenta[b]pyridin-2-yl)-2-(prop-2-yn-1-yl)isoindolin-1-one] | 48 |
| CN1Cc2ccc(-c3nc4c(cc3-c3cnn(CC5(C)CCCC5)c3)CCC4=O)cc2C1=O [Example 124, 2-(2-Methyl-3-oxoisoindolin-5-yl)-3-(1-((1-methylcyclopentyl)methyl)-1H-pyrazol-4-yl)-5,6-dihydro-7H-cyclopenta[b]pyridin-7-one] | 30 |
| CN1Cc2ccc(-c3nc(C#N)c(Cl)cc3-c3cnn(CC4(C)CCCC4)c3)cc2C1=O [Example 125, 3-Chloro-6-(2-methyl-3-oxoisoindolin-5-yl)-5-(1-((1-methylcyclopentyl)methyl)-1H-pyrazol-4-yl)picolinonitrile] | 26 |
| Cc1cc(F)c(-c2cnn(CC3(C)CCCC3)c2)c(-c2ccc3c(c2)C(=O)N(C)C3)n1 [Example 126, 6-(4-fluoro-6-methyl-3-(1-((1-methylcyclopentyl)methyl)-1H-pyrazol-4-yl)pyridin-2-yl)-2-methylisoindolin-1-one] | 71 |
| CN1Cc2ccc(-c3nc(F)c(F)cc3-c3cnn(CC4(C)CCCC4)c3)cc2C1=O [Example 127, 6-(5,6-Difluoro-3-(1-((1-methylcyclopentyl)methyl)-1H-pyrazol-4-yl)pyridin-2-yl)-2-methylisoindolin-1-one] | 90 |
| C#Cc1ccc(-c2cnn(CC3(C)CCCC3)c2)c(-c2cnc3c(c2)C(=O)N(CC2CC2)C3)n1 [Example 128, 6-(Cyclopropylmethyl)-3-(6-ethynyl-3-(1-((1-methylcyclopentyl)methyl)-1H-pyrazol-4-yl)pyridin-2-yl)-6,7-dihydro-5H-pyrrolo[3,4-b]pyridin-5-one] | 62 |
| CC1(Cn2cc(-c3ccc(C#N)nc3-c3cnc4c(c3)C(=O)N(CCO)C4)cn2)CCCC1 [Example 129, 6-(6-(2-Hydroxyethyl)-5-oxo-6,7-dihydro-5H-pyrrolo[3,4-b]pyridin-3-yl)-5-(1-((1-methylcyclopentyl)methyl)-1H-pyrazol-4-yl)picolinonitrile] | 39 |
